# Source: US9783510B2, “Small molecule mediated transcriptional induction of E-cadherin” (Vanderbilt University, priority 2014, dated 2017)
# Test system: human E-cadherin promoter
# Experiment: E-cadherin promoter luciferase reporter assay in SW620inv cells
# Assay type: cell-based
# Settings: 10 μM, 24 hours
# Description: The 1.4 kbp E-cadherin promoter plasmid (E1) and deletion plasmids E2-E8 were a gift from Dr. Eric Fearon at The University of Michigan (Liu, Y. N., et al. (2005) Onocogene 24, 8277-8290). All plasmid constructs were sequenced at the Vanderbilt University Sequencing Core to confirm the E-cadherin promoter fragments using the PCR primers listed in Table I and herein below. Luciferase assays were performed as previously described (Freeman, T. J., et al. (2012) Gastroenterology 142, 562-572).
# Compound 13 (259Y) induces>20-fold increases in reporter activation driven by the 1130 bp promoter region in an assay in which an exogenous firefly luciferase gene is driven by defined regions of the human E-cadherin promoter. This region includes consensus binding sequences for several known transcription factors, including AML1, P300, Snail and SP1 (Liu, Y. N., et al. (2005) Oncogene 24, 8277-8290). […]
# Referring to FIG. 5, a diagram of the 8 E-cadherin promoter reporter plasmids (full length and truncations) utilized to determine promoter elements critical for promoter activity is shown. […] Fold change is Log2^−ΔΔCp of the normalized fluorescence signal relative to the mean of the DMSO treated group. Statistical significance was calculated using a two-way ANOVA (Holm-Sidak method): ****=p<0.00005, ***=p<0.0005, **=p<0.005, *=p<0.05. […]
structure (smiles),measurement,setting,value
"O=C(NCCCNC(=O)c1cccnc1O)c1cc(-c2ccccc2)on1 [Compound 13, N-(3-(2-hydroxynicotinamido)propyl)-5-phenylisoxazole-3-carboxamide]",reporter activation,1130 bp promoter region,> 20 fold
same,reporter activation above control after serial deletion of distal promoter regions,deletion incl. −492 bp to −330 bp,> 10 ×
